From US20070003976A1, “Car ligand-binding domain polypeptide co-crystallized with a ligand, and methods of designing ligands that modulate car activity” (SMITHKLINE BEECHAM CORPORATION, priority 2003, published 2007) come the findings set out here.

The experiment addresses T1, human CAR LBD protein (Homo sapiens, UniProt Q14994).
T1 construct: made in house; host or cells: E. coli BL21 (DE3), pRSETA vector
T1 sequence (Q14994 103-348 isoform Q14994-2): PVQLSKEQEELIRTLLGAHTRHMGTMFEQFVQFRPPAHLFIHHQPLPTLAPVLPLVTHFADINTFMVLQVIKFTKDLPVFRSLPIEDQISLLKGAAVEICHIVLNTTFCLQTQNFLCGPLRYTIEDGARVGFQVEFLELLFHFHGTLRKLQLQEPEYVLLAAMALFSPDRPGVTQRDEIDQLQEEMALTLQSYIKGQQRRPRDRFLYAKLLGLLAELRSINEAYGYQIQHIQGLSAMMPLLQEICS
As to the kind of experiment: Fluorescence Resonance Energy Transfer (FRET) Ligand Sensing Assay: CAR LBD / SRC-1 coactivator peptide interaction. The class given is biochemical. The procedure: Screening of synthetic compound libraries with the purified CAR LBD protein by a Fluorescence Resonance Energy Transfer (FRET) Ligand Sensing Assay (Parks et al., 1999) was conducted to identify molecules that alter the basal interaction between a coactivator peptide and the CAR LBD protein. Briefly, the purified human CAR LBD protein was biotinylated and labeled with streptavidin-conjugated fluorophore allophycocyanin. The labeled CAR LBD protein was incubated with a test compound and with a peptide that included the second LXXLL binding motif of the nuclear coactivator SRC-1 (GenBank Accession No. U59302; amino acids 676-700) that was labeled with europium chelate. Data were collected with a WALLAC VICTOR™ fluorescence reader (available from PerkinElmer Life Sciences Inc., Boston, Mass., United States of America) in a time resolved mode and the fluorescence ratio calculated.

Molecules are shown by their SMILES.

`NC(=O)c1ccc2nc(NC(c3ccccc3)c3ccccc3)n(CCc3ccccc3)c2c1` [Compound 1, 2-(benzhydrylamino)-1-(2-phenylethyl)-1H-benzimidazole-6-carboxamide] gave a 50% effective concentration (EC50) (dose response curves with purified CAR LBD protein, reduction of basal CAR LBD/SRC-1 peptide FRET signal (inverse agonist)) of 15 nM. Besides, the “effect on basal fluorescent signal (CAR LBD/SRC-1 interaction)” value (screen of synthetic compound libraries, time resolved fluorescence ratio) is on record as “inverse agonist molecule that reduces the basal fluorescent signal”.

For orientation: EC50 means the concentration at which the effect is half-maximal.
